According to patent publication EP4050002A1, “ANTI-PROLIFERATIVE AGENTS” (First Health Pharmaceuticals B.V., priority 2021, dated 2022):

Assays:
[1] = target: DDX3X (Homo sapiens, UniProt O00571); test: nanoDSF enzymatic binding (melting temperature shift); design: human DDX3X (residues 132-607, UniProtID: 000571, produced by Proteros GmbH); purchased Proteros GmbH; conditions: Compound 100 µM, DDX3 4 µM
Text: The binding of compounds to DDX3X have been assessed by nanoDSF analysis (NanoTemper Technologies GmbH, Flößergasse 4, 81369 München, Germany). NanoDSF technology is a Differential Scanning Fluorimetry method which measures the protein stability with high resolution without the need of a dye. In particular it measures the changes of the intrinsic tryptophan fluorescence at 330 and 350 nm and it is used to determine the melting temperature of a protein. In the folded state the residues of tryptophan are buried in the hydrophobic core. During denaturation the residues are more exposed and the fluorescence changes in both intensity and wavelength. In a typical experiment, the protein is mixed with the ligand in the reaction buffer and transferred into a capillary. The fluorescence is monitored over temperature gradient between 20 and 95°C with an increment of 2.5°C per minute. The interaction of the ligand to the folded state of the protein shifts the protein melting temperature (Tm) at higher or lower temperature.
Experimental conditions: the experiments were conducted with the device Prometheus NT.48 (NanoTemper Technologies GmbH), the enzyme used was the human DDX3X (residues 132-607, UniProtID: 000571, produced by Proteros GmbH). The assessed compounds were dissolved in pure DMSO adequate to obtain a concentration of compound of 100µM and DMSO 1% (v:v) in final solution. Reaction buffer for DDX3X was 20 mM HEPES, pH 7.5, 0.5 mM TCEP, 500 mM NaCl, 10% (v:v) Glycerin, with a final reaction volume of 10 µL and a final DMSO concentration of 1% (v:v). The reaction was performed in "High sensitivity capillaries" in the range of 20-95°C with a heating rate of 2.5°C/min, with an incubation time of 60 minutes.
• 1) Add appropriate volume of target enzyme in reaction buffer • 2) Add compound(s) in 100% DMSO (1% final DMSO conc.) • 3) Fill the capillary • 4) Measure fluorescence
The assay development was performed with DDX3X protein alone showing a Tm at 54.6 °C.
Binding of compound 5 was assessed with the NanoDSF technique, evaluating the association of the aforementioned compound with APO DDX3X and in presence of a competitor for the ATP binding site, Adenylyl imidodiphosphate (AMPPNP) to assess competition of compound 5 for the DDX3X ATP binding site. Table 6. Final protein and compound concentrations in the various assay setup:
All the measures were performed in triplicate and the average (Mean Tm) and standard deviation (SD) were calculated with the following equations: [formula] and SD = sqrt((∑((Tm−Mean Tm))^2)/(n−1)) [formula]
A change of 5xSD from the 1% DMSO control mean is considered to be a significant Tm change. Test of DDX3X with 1% DMSO was performed to obtain the reference melting temperature of the protein alone. Compounds are considered as binders if the Tm shifts by >= 5 times the standard deviation of the control (protein in the absence of compound). Table 7. DDX3X melting temperatures (Tm) at various experimental conditions

[2] = Systemic and organ toxicity; assay type: in vivo, mice
Method: […] For blood withdrawal, mice were anesthetized using gaseous anesthesia and 0.2 to 0.3 ml of blood samples were collected in Li-Heparin containing tubes at the time points above indicated, stored on ice, centrifuged within 15 minutes to separate plasma at 1540 ref (5000 rpm) at 4°C for 10 minutes; plasma was separated and transferred to new tubes.
At study closure, animals were sacrificed and tumor and tissues removed for further studies of distribution and morphology. Mice from the efficacy study were anesthetized using gaseous anesthesia and blood samples collected in Li-Heparin containing tubes by intracardiac puncture, stored on ice, centrifuged within 15 minutes to separate plasma at 1540 ref (5000 rpm), at 4°C for 10 minutes; plasma was separated and transferred to new tubes. After blood collection, tissues for bio-analyses were separated, washed in PBS, dried and frozen at -80±10°C until homogenization.
Tissues for histological analyses were washed in PBS and paraffin embedded soon after separation. Dehydration and Haematoxylin and Eosin (H&E) staining was performed on 5 µm thick sections followed by microscopic examination with Nikon Ni-e microscope (Nikon Instruments, Calenzano, Italy).

[3] = Plasma stability; assay type: in vitro ADME, CD1 mice; conditions: Mouse plasma
Method: Plasma previously separated from whole blood in EDTA-treated tubes and frozen; blood samples obtained from healthy volunteers, Sprague Dawley rats and CD1 mice, was thawed at room temperature and centrifuged at 1400x RCF 4°C, for 15 minutes. Approximately 90% of the clear supernatant fraction was transferred to a separate tube and was used for the assay.
Stocks (1 mM and 25 µM) of test compound were prepared in acetonitrile:water (50:50 v/v). Plasma samples were heat inactivated at 54°C. 3 µl of 25 µM test compound were added to 72 µl of heat inactivated plasma. A 50 µL aliquot of the mixture was taken and crashed with 200 µl of acetonitrile containing Telmisartan 100 ng/ml as internal standard and was further processed along with other time points: 10, 30 60 and 120 minutes.
Final working stock of 1 µM was prepared by diluting 12 µl of 25 µM stock in 288 µl of plasma. The obtained solution (300 µl) of plasma containing the test compound was incubated for […] at 37°C in shaker water bath with gentle shaking. 50 µl aliquot of sample at 10, 30, 60 and 120 min was precipitated immediately with 200 µl of acetonitrile containing internal standard and centrifuged at 4000x RCF, 4°C for 20 minutes. 150 µl of supernatant was diluted with 150 µl of water and analyzed by LC-MS/MS.
The % remaining of the test substance was calculated as: (Peak Area ratio at time (min))/(Peak Area Ratio at 0 min) ^∗ 100
The API400 MS and Agilent 1260 Infinity LC were used. Mobile Phase included 10mM Ammonium acetate with 0.1% formic acid in MilliQ water, and Methanol. The column was Phenomenex, KINETIC EVO C18 100A 5u 50^∗4.6 mm, 10 µl injection volume.

DDX3X, sequence (O00571 132-607): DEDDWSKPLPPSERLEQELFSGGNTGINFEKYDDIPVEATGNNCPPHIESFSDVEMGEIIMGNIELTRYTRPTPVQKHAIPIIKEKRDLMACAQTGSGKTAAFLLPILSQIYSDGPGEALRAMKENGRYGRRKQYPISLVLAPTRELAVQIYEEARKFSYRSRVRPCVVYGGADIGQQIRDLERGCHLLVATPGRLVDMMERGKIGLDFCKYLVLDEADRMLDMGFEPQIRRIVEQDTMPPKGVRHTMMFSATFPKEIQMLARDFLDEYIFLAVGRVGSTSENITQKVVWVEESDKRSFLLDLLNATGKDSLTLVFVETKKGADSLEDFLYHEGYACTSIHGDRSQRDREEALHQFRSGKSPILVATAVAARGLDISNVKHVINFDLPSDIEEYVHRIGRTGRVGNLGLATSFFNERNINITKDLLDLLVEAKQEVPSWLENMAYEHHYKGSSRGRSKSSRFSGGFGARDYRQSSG

CCCCc1cn(-c2ccc(-c3nnc(-c4ccccc4C(F)(F)F)o3)cc2)nn1 [Compound 5]
Comment (Tm shift) ([1]; AMPPNP 100 µM): significant Tm shift to higher Tm, compound interference
Mean Tm ([1]; AMPPNP 100 µM): 56.8 °C
Comment (Tm shift) ([1]; no AMPPNP): significant Tm shift to higher Tm, compound interference
Mean Tm ([1]; no AMPPNP): 56.9 °C
treatment related morphological changes in brain, liver, lung, spleen and kidney ([2]; 6 weeks of repeated treatment, I.P. 45mg/Kg every 48 hours): No treatment related morphological changes
systemic toxicities or altered behavior ([2]; I.P. 10 mg/kg single administration, mice observed for 24 hours): no toxicities
systemic toxicities or altered behavior ([2]; I.P. 45 mg/kg double administration, mice observed for 48 hours): no toxicities
systemic toxicities or altered behavior ([2]; I.P. 45 mg/kg every 48 hours, 6 weeks, including 1 week follow up): no toxicities
systemic toxicities or altered behavior ([2]; I.P. 45 mg/kg single administration, mice observed for 24 hours): no toxicities
systemic toxicities or altered behavior ([2]; I.T. 0.08 mg/kg single administration, mice observed for 24 hours): no toxicities
systemic toxicities or altered behavior ([2]; I.V. 1 mg/kg single administration, mice observed for 24 hours): no toxicities
systemic toxicities or altered behavior ([2]; P.O. 45 mg/kg single administration, mice observed for 24 hours): no toxicities
% Remaining ± SD ([3]; 0 minutes): 100.0 ± 1.8%
% Remaining ± SD ([3]; 10 minutes): 117.2 ± 8.6%
% Remaining ± SD ([3]; 30 minutes): 111.1 ± 0.3%
% Remaining ± SD ([3]; 60 minutes): 108.2 ± 4.8%
% Remaining ± SD ([3]; 120 minutes): 123.2 ± 26.5%
